Assay results taken from BindingDB's records for doi:10.1080/14756360310001650200 (Universit&Eacute, 2004).
pIC50: −log10 of the molar value.

Biological target: T1, Chymase (Homo sapiens, UniProt P23946)
T1 sequence (P23946 whole entry): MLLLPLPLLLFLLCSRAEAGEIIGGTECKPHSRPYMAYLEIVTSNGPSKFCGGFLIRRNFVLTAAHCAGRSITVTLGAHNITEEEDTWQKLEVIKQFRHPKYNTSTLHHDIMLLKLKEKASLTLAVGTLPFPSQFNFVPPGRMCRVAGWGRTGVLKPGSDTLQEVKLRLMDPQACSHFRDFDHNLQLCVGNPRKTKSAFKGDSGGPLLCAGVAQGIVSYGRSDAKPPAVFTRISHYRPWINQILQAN
Assay: Enzyme Inhibition Assay
Description: Enzyme inhibitory activity using recombinant human chymase.

Structure (SMILES) | pIC50
Cc1ccc(S(=O)(=O)n2c(O)c3n(c2=O)-c2ccccc2C3)cc1 [Tetrahydroisoquinoline hydantoin derivative, 3a] | 3.77
Cc1ccc(S(=O)(=O)n2c(O)c3n(c2=O)-c2ccccc2C3)cc1C [Tetrahydroisoquinoline hydantoin derivative, 3b] | 3.69
O=c1n2c(c(O)n1S(=O)(=O)c1ccc(Cl)c(Cl)c1)Cc1ccccc1-2 [Tetrahydroisoquinoline hydantoin derivative, 3c] | 3.43
O=c1n2c(c(O)n1S(=O)(=O)c1ccc3ccccc3c1)Cc1ccccc1-2 [Tetrahydroisoquinoline hydantoin derivative, 3d] | 4.06
Cc1ccc(S(=O)(=O)N2C(=O)[C@@H]3Cc4ccccc4CN3C2=O)cc1 [Tetrahydroisoquinoline hydantoin derivative, 5a] | 4.31
Cc1ccc(S(=O)(=O)n2c(O)c3n(c2=O)Cc2ccccc2C3)cc1C [Tetrahydroisoquinoline hydantoin derivative, 5b] | 4.37
O=c1n2c(c(O)n1S(=O)(=O)c1ccc3ccccc3c1)Cc1ccccc1C2 [Tetrahydroisoquinoline hydantoin derivative, 5d] | 4.76
